Legend:
[1] = test system: U937 cells; assay: Active caspase detection with Phi-Phi-Lux; assay type: cell-based, human; details: 1 μM, 6 hours
Description: Detection of active caspases. The cell-permeable fluorogenic substrate Phi-Phi-Lux-G1D2 was administered to monitor caspase activity according to the manufacturer's recommendations (OncoImmunin, Inc, Kensington, Md.). Briefly, 10^6 cells were resuspended in 5 μL of substrate solution and incubated for 1 hour at 37° C. in the dark. After incubation, cells were washed, and the fluorescence emission was determined using the FL-1 channel of a Becton Dickinson FACScan flow cytometer.
CDDO-Me. […] Effects of CDDO-Me on the cleavage of caspase-3 were analyzed utilizing the fluorogenic substrate of caspase-3 Phi-Phi-Lux.

[2] = test system: ERK1/2 in U937 cells; assay: ERK1/2 phosphorylation, Western blot; assay type: cell-based, human; details: 1 μM, 3 hours
Description: Western blot analysis. An equal amount of protein lysate was placed on 12% SDS-PAGE for 2 hours at 100 volts, followed by transfer of the protein to a Nytran membrane (S&S, Heween, N.H.) and immunoblotting. Polyclonal rabbit antibodies to Bcl-2, Bcl-XL, and Bax were kindly provided by Dr. J. C. Reed. Antibodies against PARP was obtained from PharMingen (San Diego, Calif.), DFF-45 from Oncogene (Cambridge, Mass.), XIAP from Transduction Laboratories (Lexington, Ky.), caspase-3 from PharMingen, phospho-specific anti-pERK1/2 antibodies from Calbiochem (San Diego, Calif.). A specific antibody recognizing only the p20-processed caspase-3 band was provided by Idun Pharmaceutical, Inc. (La Jolla, Calif.).
Since PKC-α and the MAP kinases ERK1 (p44) and ERK2 (p42) have been identified as physiologic Bcl-2 kinases, studies were performed to assess their activation status. […] However, both ERK1 and ERK2 were prominently detected in the mitochondrial membranes. […] Treatment of K562 cells with 1 μM of CDDO-Me in vivo abrogated ERK kinase activity similar to specific MEK inhibitor […]. No effect on Akt activity was seen. These findings indicate that CDDO-Me induces apoptosis by inhibition of ERK1/2 and Bcl-2 phosphorylation.

[3] = test system: D9 cells, vector control; assay: Annexin V / cell number in D9 vector control cells; assay type: cell-based
Description: Annexin V staining. Cells were washed in phosphate-buffered saline (PBS) and resuspended in 100 μl of binding buffer containing Annexin V (Roche Diagnostic Corporation, Indianapolis, Ind.). Cells were analyzed by flow cytometry after the addition of propidium iodide (PI). Annexin V binds to those cells that express phosphatidylserine on the outer layer of the cell membrane, and PI stains the cellular DNA of those cells with a compromised cell membrane. This allows for live cells (unstained with either fluorochrome) to be discriminated from apoptotic cells (stained only with annexin V) and necrotic cells (stained with both annexin and PI).
To characterize the correlation between PPARγ and caspase activation, caspase-3 levels in D9 cells transfected with wt-PPARγ were analyzed. Six different single cell-derived clones were treated with 3 μM CDDO or vehicle controls for 5 hrs. Caspase-3 cleavage was analyzed by Western blot. A decrease in pro-caspase-3 with appearance of the cleaved product was readily observed in all clones. The degree of cleavage was higher in PPARγ-transfected than in vector control cells that express endogenous PPARγ. […] These changes correlated with plasma membrane changes: vector control=47.0% annexin V-positive cells; wt-PPARγ-transfected cells=73.3±1.1% annexin V (+), n=6. […] PPARγ-transfected cells were also more sensitive to PPARγ-ligand 15d-PGJ2 (41.00% vs 16.0% annexin (+) cells at 3 μM).
To characterize the correlation between PPARγ and caspase activation, caspase-3 levels in D9 cells transfected with wt-PPARγ were analyzed. Six different single cell-derived clones were treated with 3 μM CDDO or vehicle controls for 5 hrs. Caspase-3 cleavage was analyzed by Western blot. A decrease in pro-caspase-3 with appearance of the cleaved product was readily observed in all clones. The degree of cleavage was higher in PPARγ-transfected than in vector control cells that express endogenous PPARγ. […] These changes correlated with plasma membrane changes: vector control=47.0% annexin V-positive cells; wt-PPARγ-transfected cells=73.3±1.1% annexin V (+), n=6. […]

[4] = test system: NB4 cells; assay: Cell surface Fas/CD95 expression by flow cytometry; assay type: cell-based, human; details: 0.5 μM, 48 hours (24.8 in DMSO-treated cells)
Description: (§1) Immunophenotyping. The PE-conjugated anti-CD11b, FITC-conjugated anti-CD14 monoclonal antibody (mAb) (Becton Dickinson) and PE-conjugated anti-CD95 mAb (PharMingen) were used at a 1/10 dilution. The percentage of positive cells was calculated by subtracting the percentage of cells with a fluorescence intensity greater than the set marker using the isotype control (background) from the percentage of cells with a fluorescence intensity greater than the same marker using the specific antibody.
(§2) Mechanisms of CDDO-induced apoptosis in leukemia cell lines and in primary AML samples were also determined. The involvement of the death receptor/Fas pathway was studied in NB4 cells. Treatment with 0.5 μM CDDO induced cell surface Fas/CD95 expression at 48 hours (MFI 34.8 vs 24.8 in DMSO-treated cells and 26 in untreated control). At this concentration, 22.3% of cells were annexin V positive compared with 11.4% in DMSO-controls. At 1 μM, 56.3% of cells were apoptotic. Similarly, 1 μM CDDO induced Fas expression in 7/12 AML CD34+ cells (MFI, 22.3±3.5 in DMSO-controls, 40±4.3 in CDDO-treated CD34+ cells, p<0.01).

[5] = test system: AML CD34+ cells; assay: Fas expression in primary AML CD34+ cells; assay type: cell-based, human
Description: as §1, §2

[6] = test system: RXR-expressing HL-60 cells; assay: Acetylation of nuclear histones, Western blot; assay type: cell-based, human; details: alone or with RXR-specific ligand LG-100268
Text: PPARγ must form a heterodimer with RXR to bind DNA and activate transcription (Nolte et al., 1998). RXR-specific ligands markedly induce the binding of the co-activator SRC-1 to PPARγ-RXR heterodimers ([…] et al., 1998), and assembly of this complex results in a large increase in transcriptional activity. […] One method to increase the effects of PPARγ ligands contemplated herein is by combination with ligands specific for RXR. […] TSA, the histone deacetylase inhibitor, served as a positive control. Combination of the PPARγ ligand CDDO with TSA synergistically induce differentiation in HL-60 cells and the present inventors contemplate that this is a result of transcriptional activation of target genes via histone acetylation.

SMILES | Phi-Phi-Lux positive/PI negative cells [1] | activation of ERK1/2 (ERK1/2 phosphorylation) [2] | annexin V-positive cells ([3]; 3 μM (CDDO: 5 hrs)) | cell number ([3]; 3 μM CDDO) | cell surface Fas/CD95 expression, MFI [4] | AML samples with induced Fas expression in CD34+ cells ([5]; 1 μM) | Fas expression, MFI ([5]; 1 μM (22.3±3.5 in DMSO-controls)) | acetylation of histones H3 and H4 [6]
COC(=O)[C@]12CCC(C)(C)C[C@H]1[C@H]1C(=O)C=C3[C@@]4(C)C=C(C#N)C(=O)C(C)(C)[C@@H]4CC[C@@]3(C)[C@]1(C)CC2 [CDDO-Me] | 67% | blocked the activation of ERK1/2 |  |  |  |  |  | 
CC1(C)CCC2(C(=O)O)CCC3(C)C(C(=O)C=C4C5(C)C=C(C#N)C(=O)C(C)(C)C5CCC43C)C2C1 (centres unmarked) [CDDO, 2-cyano-3,12-dioxoolen-1,9-dien-28-oic acid] |  |  | 47.0% | did not change | 34.8 | 7/12 | 40±4.3 | induction of acetylation of histones H3 and H4
